Where “and” joins values, the source holds several entries; their conditions need not be identical. Equal values may be shown once. Inconclusive results and toxic doses are left out. Rule as the data show it: active = T/C of 150% or more; inactive = T/C below 125%.
System: L1210 leukemia ip in BDF1 mice, survival T/C
Assay: NCI In Vivo Anticancer Drug Screen. Data for tumor model L1210 Leukemia (intraperitoneal) in B6D2F1 (BDF1) mice
Conditions: endpoint: mean survival time, higher = longer survival
Summary of the method: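 Ratio derived from survival: compound-dosed mice over vehicle-dosed mice, all bearing a transplantable tumor.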

[1] = dose: 100.0 mg/kg/injection, schedule: Q01DX001 (ip), vehicle: Klucel (hydroxypropylcellulose) (HPC)
[2] = dose: 100.0 mg/kg/injection, schedule: Q01DX009 (ip), vehicle: Klucel (hydroxypropylcellulose) (HPC)
[3] = dose: 200.0 mg/kg/injection, schedule: Q01DX001 (ip), vehicle: Klucel (hydroxypropylcellulose) (HPC)
[4] = dose: 200.0 mg/kg/injection, schedule: Q01DX009 (ip), vehicle: Klucel (hydroxypropylcellulose) (HPC)
[5] = dose: 400.0 mg/kg/injection, schedule: Q01DX001 (ip), vehicle: Klucel (hydroxypropylcellulose) (HPC)
[6] = dose: 400.0 mg/kg/injection, schedule: Q01DX009 (ip), vehicle: Klucel (hydroxypropylcellulose) (HPC)
[7] = dose: 100.0 mg/kg/injection, schedule: Q04DX003 (ip), vehicle: saline with Tween-80
[8] = dose: 200.0 mg/kg/injection, schedule: Q04DX003 (ip), vehicle: saline with Tween-80
[9] = dose: 400.0 mg/kg/injection, schedule: Q04DX003 (ip), vehicle: saline with Tween-80
[10] = dose: 100.0 mg/kg/injection, schedule: Q01DX009 (ip), vehicle: other
[11] = dose: 200.0 mg/kg/injection, schedule: Q01DX009 (ip), vehicle: other
[12] = dose: 100.0 mg/kg/injection, schedule: Q04DX003 (ip), vehicle: Klucel (hydroxypropylcellulose) (HPC)
[13] = dose: 200.0 mg/kg/injection, schedule: Q04DX003 (ip), vehicle: Klucel (hydroxypropylcellulose) (HPC)
[14] = dose: 400.0 mg/kg/injection, schedule: Q04DX003 (ip), vehicle: Klucel (hydroxypropylcellulose) (HPC)
[15] = dose: 100.0 mg/kg/injection, schedule: Q01DX001 (ip), vehicle: saline
[16] = dose: 200.0 mg/kg/injection, schedule: Q01DX001 (ip), vehicle: saline
[17] = dose: 50.0 mg/kg/injection, schedule: Q01DX009 (ip), vehicle: saline
[18] = dose: 100.0 mg/kg/injection, schedule: Q01DX009 (ip), vehicle: saline
[19] = dose: 100.0 mg/kg/injection, schedule: Q04DX003 (ip), vehicle: saline
[20] = dose: 200.0 mg/kg/injection, schedule: Q04DX003 (ip), vehicle: saline
[21] = dose: 100.0 mg/kg/injection, schedule: Q01DX001 (ip), vehicle: carboxymethylcellulose (CMC)
[22] = dose: 200.0 mg/kg/injection, schedule: Q01DX001 (ip), vehicle: carboxymethylcellulose (CMC)
[23] = dose: 400.0 mg/kg/injection, schedule: Q01DX001 (ip), vehicle: carboxymethylcellulose (CMC)
[24] = dose: 100.0 mg/kg/injection, schedule: Q01DX001 (ip), vehicle: other
[25] = dose: 200.0 mg/kg/injection, schedule: Q01DX001 (ip), vehicle: other
[26] = dose: 400.0 mg/kg/injection, schedule: Q01DX001 (ip), vehicle: other

Measured: T/C

CC1=C(Cl)C(=N\S(=O)(=O)c2ccccc2)/c2ccccc2/C1=N/S(=O)(=O)c1ccccc1
inactive: dose: 100.0 mg/kg/injection, schedule: Q01DX001 (ip), vehicle: saline sonified 101 % of control | dose: 200.0 mg/kg/injection, schedule: Q01DX001 (ip), vehicle: saline sonified 100 % of control | dose: 400.0 mg/kg/injection, schedule: Q01DX001 (ip), vehicle: saline sonified 102 % of control

CCc1c(C=O)[nH]c(=S)n(C)c1=O
inactive: [1] 104 % of control | [2] 108 % of control | [3] 98 % of control | [4] 88 % of control | [5] 101 % of control | [6] 98 % of control

COc1ccccc1NCS(=O)(=O)O
inactive: [7] 98 % of control | [8] 102 % of control | [9] 100 % of control

BrCCOc1ccccc1
inactive: [10] 95 % of control | [11] 101 % of control

O=[N+]([O-])c1cc(Br)cc2c1nc(NCCCO)c1ccccc12
inactive: [12] 103 % of control | [13] 109 % of control | [14] 109 % of control

CCC(=O)OC1(c2ccccc2)CCN(CC2CC2)CC1C (stereo not given)
inactive: dose: 20.0 mg/kg/injection, schedule: Q04DX003 (ip), vehicle: saline 105 % of control | dose: 40.0 mg/kg/injection, schedule: Q04DX003 (ip), vehicle: saline 111 % of control | dose: 80.0 mg/kg/injection, schedule: Q04DX003 (ip), vehicle: saline 91 % of control

CCN(CC)C(C)(O)CN (stereo not given)
inactive: [15] 98 % of control | [16] 103 % of control

O=C(O)CNCc1cccc(Cl)c1
inactive: [17] 94 % of control | [18] 101 % of control | [19] 95 % of control | [20] 93 % of control | dose: 400.0 mg/kg/injection, schedule: Q01DX009 (ip), vehicle: saline 101 % of control | dose: 400.0 mg/kg/injection, schedule: Q04DX003 (ip), vehicle: saline 102 % of control

OCC1OC(n2cc(Br)c3c(=S)nc[nH]c32)C(O)C1O (stereo not given)
inactive: [21] 104 % of control | [22] 110 % of control | [23] 106 % of control

CCc1cccc(CC)c1NC(=O)Nc1ccccc1F
inactive: [10] 91 % of control | [11] 102 % of control | dose: 400.0 mg/kg/injection, schedule: Q01DX009 (ip), vehicle: other 105 % of control

O=C1CCC(=O)N1C(=O)c1ccccc1
inactive: dose: 100.0 mg/kg/injection, schedule: Q01DX Z (ip), vehicle: methylcellulose (MC) 104 % of control | dose: 150.0 mg/kg/injection, schedule: Q01DX Z (ip), vehicle: methylcellulose (MC) 102 % of control | dose: 225.0 mg/kg/injection, schedule: Q01DX Z (ip), vehicle: methylcellulose (MC) 95 % of control

C[CH2][Ge]([CH2]C)[CH2]C.C[CH2][Ge]([CH2]C)[CH2]C
inactive: dose: 100.0 mg/kg/injection, schedule: Q01DX001 (ip), vehicle: saline with Tween-80 94 % of control | dose: 100.0 mg/kg/injection, schedule: Q04DX002 (ip), vehicle: saline with Tween-80 95 % of control | dose: 200.0 mg/kg/injection, schedule: Q01DX001 (ip), vehicle: saline with Tween-80 90 % of control | dose: 200.0 mg/kg/injection, schedule: Q04DX002 (ip), vehicle: saline with Tween-80 95 % of control | dose: 400.0 mg/kg/injection, schedule: Q04DX002 (ip), vehicle: saline with Tween-80 92 % of control

NN1C(=O)Cc2ccccc2C1=O
inactive: [21] 102 % of control | [7] 101 % of control | [22] 93 % of control | [8] 101 % of control | [23] 96 % of control | [9] 116 % of control

CCOC(=O)CN(c1ccccc1-c1ccccc1)S(=O)(=O)c1ccc(C)cc1
inactive: dose: 50.0 mg/kg/injection, schedule: Q01DX001 (ip), vehicle: other 92 % of control | [24] 89 % of control | [25] 101 % of control | [26] 101 % of control

COC(=O)CCC(NC(=O)CCCNC(=O)OCc1ccccc1)C(=O)OC (stereo not given)
inactive: [1] 96 % of control | [24] 97 % of control | [2] 100 % of control | [12] 94 % of control | [3] 98 % of control | [25] 100 % of control | [4] 97 % of control | [13] 89 % of control | [5] 89 % of control | [26] 103 % of control | [6] 100 % of control | [14] 86 % of control

CC(=O)c1ccc(SC(=O)N(C)C)cc1
inactive: [7] 98 % of control | [8] 93 % of control | [9] 97 % of control

C/C(CCc1c[nH]c2ccccc12)=N\O
inactive: dose: 100.0 mg/kg/injection, schedule: Q04DX003 (sc), vehicle: olive oil, sesame oil, peanut oil 98 % of control | dose: 200.0 mg/kg/injection, schedule: Q04DX003 (sc), vehicle: olive oil, sesame oil, peanut oil 98 % of control | dose: 400.0 mg/kg/injection, schedule: Q04DX003 (sc), vehicle: olive oil, sesame oil, peanut oil 104 % of control

CCOC(=O)/C(=C\c1ccccn1)C(=O)c1cccnc1
inactive: [12] 102 % of control | [13] 105 % of control | [14] 118 % of control

O=C(/C=C/c1cccc([N+](=O)[O-])c1)Nc1cccc(S(=O)(=O)F)c1
inactive: dose: 100.0 mg/kg/injection, schedule: Q01DX009 (ip), vehicle: saline with Tween-80 89 % of control | dose: 200.0 mg/kg/injection, schedule: Q01DX009 (ip), vehicle: saline with Tween-80 96 % of control | dose: 400.0 mg/kg/injection, schedule: Q01DX009 (ip), vehicle: saline with Tween-80 97 % of control

NCCCOc1ccc([N+](=O)[O-])cc1
inactive: dose: 50.0 mg/kg/injection, schedule: Q01DX001 (ip), vehicle: saline 100 % of control | [17] 104 % of control and 109 % of control | dose: 50.0 mg/kg/injection, schedule: Q04DX003 (ip), vehicle: saline 95 % of control | [15] 101 % of control | [18] 102 % of control and 107 % of control | dose: 100.0 mg/kg/injection, schedule: Q04DX002 (ip), vehicle: saline 96 % of control and 89 % of control | [19] 114 % of control | [16] 100 % of control | dose: 200.0 mg/kg/injection, schedule: Q01DX009 (ip), vehicle: saline 100 % of control | dose: 200.0 mg/kg/injection, schedule: Q04DX002 (ip), vehicle: saline 93 % of control and 96 % of control | [20] 106 % of control

Nc1ccc(S(N)(=O)=O)cc1
inactive: [12] 114 % of control | [13] 95 % of control | [14] 92 % of control

— PubChem BioAssay AID248 (DTP/NCI, 2004)
